The target in data set [1] is T1, human GIP receptor (hGIP-R) (Homo sapiens, UniProt P48546).
T1 construct: expressed in transfected cells; host or cells: HEK-293
T1 sequence (P48546 22-466): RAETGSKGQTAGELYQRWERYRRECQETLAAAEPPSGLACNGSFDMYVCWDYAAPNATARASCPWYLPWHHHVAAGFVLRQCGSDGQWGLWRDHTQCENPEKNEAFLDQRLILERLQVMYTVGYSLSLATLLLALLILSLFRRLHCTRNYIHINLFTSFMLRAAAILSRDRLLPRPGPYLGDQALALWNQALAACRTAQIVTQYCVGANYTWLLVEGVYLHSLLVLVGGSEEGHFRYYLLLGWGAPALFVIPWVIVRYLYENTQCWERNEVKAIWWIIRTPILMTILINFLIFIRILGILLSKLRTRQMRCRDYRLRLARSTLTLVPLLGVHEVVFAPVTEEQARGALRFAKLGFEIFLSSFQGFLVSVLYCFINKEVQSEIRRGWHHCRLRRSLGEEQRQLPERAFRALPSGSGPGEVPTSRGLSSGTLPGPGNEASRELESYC
The experiment in a line: cAMP response (HTRF) of HEK-293 cells stably expressing human GIP receptor. Format: cell-based. The note with it: Table 8; cAMP formation. Here is the method: cAMP content of cells was determined using a kit from Cisbio Corp. (cat. no. 62AM4PEJ) based on HTRF (Homogenous Time Resolved Fluorescence). For preparation, cells were split into T175 culture flasks and grown overnight to near confluency in medium (DMEM/10% FBS). Medium was then removed and cells washed with PBS lacking calcium and magnesium, followed by proteinase treatment with accutase (Sigma-Aldrich cat. no. A6964). Detached cells were washed and resuspended in assay buffer (1×HBSS; 20 mM HEPES, 0.1% BSA, 2 mM IBMX) and cellular density determined. They were then diluted to 400000 cells/ml and 25 μl-aliquots dispensed into the wells of 96-well plates. For measurement, 25 μl of test compound in assay buffer was added to the wells, followed by incubation for 30 minutes at room temperature.
Potencies of peptidic compounds at the GLP-1, glucagon and GIP receptors were determined by exposing cells expressing human glucagon receptor (hGlucagon R), human GIP receptor (hGIP-R) or human GLP-1 receptor (hGLP-1 R) to the listed compounds at increasing concentrations and measuring the formed cAMP as described in Methods.
(In TR-FRET formats the signal depends on donor and acceptor labels being close together.)

Data set [2] is described as follows: Thioflavin T (ThT) assay for physical stability (fibrillation). Format: physicochemical. The note with it: 3 mg/ml, 100 mM acetate pH 4.5 with m-cresol, shaking at 37° C. Here is the method: Investigations were carried out to determine fibrillation tendencies under stress conditions by shaking at 37° C. within Fluoroskan Ascent FL.
For the tests in Fluoroskan Ascent FL, 200 μL sample were placed into a 96 well mictrotiter plate PS, flat bottom, Greiner Fluotrac No. 655076. Plates were sealed with Scotch Tape (Quiagen). Samples were stressed by continuous cycles of 10 s shaking at 960 rpm and 50 s rest period at 37° C. The kinetic was monitored by measuring fluorescence intensity every 20 minutes.
Peptides were diluted in a buffer system to a final concentration of 3 mg/ml. 20 μL of a 10.1 mM ThT solution in H2O were added to 2 mL of peptide solution to receive a final concentration of 100 μM ThT. For each sample eight replicates were tested.
Tht buffer system A) 100 mM Acetate pH 4.5 including m-cresol (100 mM Natriumacetat trihydrat, pH adjustment using 2N CH3COOH, 2.7 mg/mL m-cresol) Tht buffer system B) 100 mM citrate buffer pH 6.0
Lag time in hours in Thioflavin T (ThT) assay of peptide samples was determined in Tht buffer system A as described in Methods.

Data set [3] is described as follows: Chemical stability assessment (UPLC-UV, relative purity loss). The settings on record: 1 mg/ml, 25 mM acetate buffer pH 4.5 with m-cresol (buffer system A). Format: physicochemical. On the procedure: Prior to the chemical stability measurement of a peptide batch, its purity was determined through UPLC/MS. For stability testing the target concentration was 1 mg pure compound/ml. Therefore solutions from solid samples were prepared in a buffer system with a concentration of 1 mg/mL compound based on the previously determined % purity:
Chemical stability buffer system A) 25 mM acetate buffer pH4.5, 3 mg/mL L-Methionine, 2.7 mg/mL m-cresol, 18 mg/mL Glycerol 85%
Peptide solutions were filtered through […] pore size and filled into aliquots under aseptic conditions. At starting point UPLC-UV was performed by injection of 2 μl of the undiluted sample.
For chemical stability testing, aliquots were stored for 28 days at Sand 40° C. After this time course the samples were centrifuged for 15 min at 2500 RCF. Then 2 μl of the undiluted supernatant were analysed with UPLC-UV.
The chemical stability was rated through the relative loss of purity calculated by the equation: [(purity at starting point)−(purity after 28 days at X° C.)]/(purity at starting point)]*100%
The purity is calculated as [(peak area peptide)/(total peak area)]*100%
Peptide samples were prepared in Chemical stability buffer system A and chemical stability was assessed as described in Methods.

A short description of data set [4]: Solubility assessment (UPLC-UV). Format: physicochemical. The note with it: acetate buffer pH 4.5, 2.7 mg/ml m-cresol (buffer system A), target 10 mg/ml. Here is the method:
Prior to the solubility measurement of a peptide batch, its purity was determined through UPLC/MS.
Therefore solutions from solid samples were prepared in a buffer systems with a concentration of 10 mg/mL compound based on the previously determined % purity:
Solubility buffer system A) Acetate Buffer pH 4.5, 100 mM sodium acetate trihydrate, 2.7 mg/ml m-Cresol
UPLC-UV was performed after 1 hour of gentle agitation from the supernatant, which was obtained after 15 min of centrifugation at 2500 RCF (relative centrifugal acceleration).
The solubility was determined by the comparison of the UV peak area of 2 μL-injection of a buffered sample diluted 1:10 with a standard curve of a reference peptide with known concentration. The different UV extinction coefficients of sample and reference peptide were calculated based on the different amino acid sequences and considered in the concentration calculation.
Peptide samples were prepared in solubility buffer system A and solubility was assessed as described in Methods.

Data set [5] can be described thus: Dynamic light scattering (DLS), hydrodynamic radius as surrogate for interaction parameter kD. Format: physicochemical. On the procedure: For every peptide solution, the hydrodynamic radius Rh and the diffusion constant D (related via the Stokes-Einstein equation) were determined as an average over triplicates. Both parameters were determined at different concentrations (e.g., Rh1 and D1: 1 mg/ml and Rh5 and D5: 5 mg/ml) in the same buffer system. The difference of these parameters between low and high peptide concentration is a surrogate for the DLS interaction parameter kD. Rh5<Rh1 or D5>D1 correspond to kD>0 and therefore to repulsive inter-particle interactions that result in improved physical (or colloidal) stability.
DLS buffer system A) 25 mM acetate buffer pH4.5, 3 mg/mL L-Methionine, 2.7 mg/mL m-cresol, 18 mg/mL Glycerol 85%
DLS Method C: DLS measurements were performed on a DynaPro Plate Reader II (Wyatt Technology, Santa Barbara, Calif., US) and using one of the following black, low volume, and non-treated plates: polystyrene 384 assay plate with clear bottom (Corning, N.Y., US), polystyrene 96 assay plate with clear bottom (Corning, N.Y., US), cyclo olefin polymer (COP) 384 assay plate with clear bottom (Aurora, Mont., US), or polystyrene 384 assay plate with clear bottom (Greiner Bio-One, Germany). The data were processed with the Dynamics software provided by Wyatt Technology. Parameters of the particle size distribution were determined with non-negatively constrained least squares (NNLS) methods using DynaLS algorithms. Measurements were taken at 25° C. with an 830 nm laser light source at an angle of 158°.
The hydrodynamic radius radius Rh of peptide samples was determined at different peptide concentrations (1 mg/ml and 5 mg/ml) in DLS buffer system A using DLS method C as described in Methods as surrogate for the DLS interaction parameter kD.

For orientation: EC50 means the concentration giving half of the maximal effect. For orientation: solubility means the dissolved amount per volume that the medium holds. Low readings indicate a poorly soluble substance, high ones a readily soluble substance.

SMILES strings stand for the structures. Numbered stars: 1 amine (or outer) side, 2 acyl side, 3 side chain; on linkers, the order of the positions; unused ones are H or OH. Square brackets hold non-standard residues; d marks the D form. Side chains are listed from the residue outwards. Peptide text beside a SMILES is read from it. * marks the point of attachment. Adipoyl(4R-palmitoylamino) = CCCCCCCCCCCCCCCC(=O)N[C@H](CCC(=O)*)CC(=O)O; γGlu = O=C(O)[C@H](CCC(=O)[*:2])N[*:1]; Palmitoyl = CCCCCCCCCCCCCCCC(=O)*; AEEA = NCCOCCOCC(=O)O; Aib = CC(C)(N)C(=O)O

On to `CCCCCCCCCCCCCCCC(=O)NCCOCCOCC(=O)N[C@@H](CCC(=O)N[C@@H](CCC(=O)NCCCC[C@H](NC(=O)[C@H](CC(C)C)NC(=O)[C@H](CCCCN)NC(=O)[C@H](CO)NC(=O)[C@H](CC(C)C)NC(=O)[C@H](CC(=O)O)NC(=O)[C@H](CO)NC(=O)[C@@H](NC(=O)[C@H](Cc1ccccc1)NC(=O)[C@@H](NC(=O)CNC(=O)[C@H](CCC(N)=O)NC(=O)C(C)(C)NC(=O)[C@@H](N)Cc1c[nH]cn1)[C@@H](C)O)[C@@H](C)O)C(=O)N[C@@H](CCC(=O)O)C(=O)N[C@@H](CCC(=O)O)C(=O)N[C@@H](CCC(N)=O)C(=O)N[C@@H](CCCNC(=N)N)C(=O)N[C@@H](CCC(N)=O)C(=O)NC(C)(C)C(=O)N[C@@H](CCC(=O)O)C(=O)N[C@@H](Cc1ccccc1)C(=O)N[C@H](C(=O)N[C@@H](CCC(=O)O)C(=O)N[C@@H](Cc1c[nH]c2ccccc12)C(=O)N[C@@H](CC(C)C)C(=O)N[C@@H](CCCCN)C(=O)N[C@@H](C)C(=O)NCC(=O)NCC(=O)N[C@@H](Cc1c[nH]cn1)C(=O)N1CCC[C@H]1C(=O)N[C@@H](CO)C(=O)NC(C)(C)C(=O)N[C@@H](CCCCN)C(=O)N1CCC[C@H]1C(=O)N1CCC[C@H]1C(=O)N1CCC[C@H]1C(=O)N[C@@H](CCCCN)C(N)=O)[C@@H](C)CC)C(=O)O)C(=O)O` [SEQ ID NO: 18, H-Aib-Q-G-T-F-T-S-D-L-S-K-L-K[gGlu-gGlu-AEEA-Palm]-E-E-Q-R-Q-Aib-E-F-I-E-W-L-K-A-G-G-H-P-S-Aib-K-P-P-P-K-NH2] (H-H[Aib]QGTFTSDLSKLK([γGlu-γGlu-AEEA-Palmitoyl])EEQRQ[Aib]EFIEWLKAGGHPS[Aib]KPPPK-NH2), for which the half-maximal effective concentration (EC50) in data set [1] was 5.6 pM. In addition, the “Lag time before increase” value in data set [2] is above 45 h.
Consider `CCCCCCCCCCCCCCCC(=O)N[C@H](CCC(=O)NCCOCCOCC(=O)N[C@@H](CCC(=O)NCCCC[C@H](NC(=O)[C@H](CC(C)C)NC(=O)[C@H](CCCCN)NC(=O)[C@H](CO)NC(=O)[C@H](CC(C)C)NC(=O)[C@H](CC(=O)O)NC(=O)[C@H](CO)NC(=O)[C@@H](NC(=O)[C@H](Cc1ccccc1)NC(=O)[C@@H](NC(=O)CNC(=O)[C@H](CCC(N)=O)NC(=O)C(C)(C)NC(=O)[C@@H](N)Cc1c[nH]cn1)[C@@H](C)O)[C@@H](C)O)C(=O)N[C@@H](CCC(=O)O)C(=O)N[C@@H](CCC(=O)O)C(=O)N[C@@H](CCC(N)=O)C(=O)N[C@@H](CCCNC(=N)N)C(=O)N[C@@H](CCC(N)=O)C(=O)NC(C)(C)C(=O)N[C@@H](CCC(=O)O)C(=O)N[C@@H](Cc1ccccc1)C(=O)N[C@H](C(=O)N[C@@H](CCC(=O)O)C(=O)N[C@@H](Cc1c[nH]c2ccccc12)C(=O)N[C@@H](CC(C)C)C(=O)N[C@@H](CCCCN)C(=O)N[C@@H](C)C(=O)N[C@H](C)C(=O)NCC(=O)N[C@@H](Cc1c[nH]cn1)C(=O)N1CCC[C@H]1C(=O)N[C@@H](CO)C(=O)NC(C)(C)C(=O)N[C@@H](CCCCN)C(=O)N1CCC[C@H]1C(=O)N1CCC[C@H]1C(=O)N1CCC[C@H]1C(=O)N[C@@H](CCCCN)C(N)=O)[C@@H](C)CC)C(=O)O)CC(=O)O` [SEQ ID NO: 23, H-Aib-Q-G-T-F-T-S-D-L-S-K-L-K[gGlu-AEEA-gAAA-Palm]-E-E-Q-R-Q-Aib-E-F-I-E-W-L-K-A-dAla-G-H-P-S-Aib-K-P-P-P-K-NH2] (H-H[Aib]QGTFTSDLSKLK([γGlu-AEEA-Adipoyl(4R-palmitoylamino)])EEQRQ[Aib]EFIEWLKA[dA]GHPS[Aib]KPPPK-NH2), for which the “Chemical stability [relative purity loss 28 days 40° C.] (%) at pH 4.5” value in data set [3] was 9.6%. In data set [4], this molecule displayed a solubility at 1 h above 10.4 mg/mL. The “Delta Rh [nm] = Rh5 − Rh1” value in data set [5] (DLS buffer system A pH 4.5) is listed as −0.1 nm. Moreover, in data set [5] (hydrodynamic radius, 1 mg/ml, DLS buffer system A pH 4.5, DLS method C, 25° C.), the “Rh1 [nm] c= 1 mg/ml” value is 2.8 nm. The “Rh5 [nm] c = 5 mg/ml” value in data set [5] (hydrodynamic radius, 5 mg/ml, DLS buffer system A pH 4.5, DLS method C, 25° C.) came out at 2.7 nm. For the same molecule, the “Lag time before increase” value in data set [2] is reported as above 45 h.

The values are drawn from patent publication US10519211B2, “Compounds as peptidic GLP1/glucagon/GIP receptor agonists” (SANOFI, priority 2016, dated 2019).
